Consider 12 compounds from US10471046B2, “Method for treating, preventing, or reducing the risk of skin infection” (Melinta Subsidiary Corp., priority 2014, dated 2019).

SMILES strings stand for the structures. ≈ marks a conversion by molar mass, not a printed value.

In this experiment the test system is S. aureus. The experiment in a line: Minimum inhibitory concentrations (MICs) for S. aureus of exemplary compounds (Table 2). The experiment is classed as cell-based. To be noted: Staphylococcus aureus, minimum inhibitory concentrations for S. aureus; read-out: MICs. The procedure, abridged:
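Growth of S. aureus in media with or without compound, by broth microdilution in microtiter trays following NCCLS M7-A5 guidelines. Values are MICs in μg/mL.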

On to `CC(=O)NC[C@H]1CN(c2ccc(-c3ccc(CN[C@@H](Cc4c[nH]c5ccccc45)C(N)=O)cc3)c(F)c2)C(=O)O1` [Compound 4175, 2-({4′-[5-(S)-(Acetylamino-methyl)-2-oxo-oxazolidin-3-yl]-2′-fluoro-biphenyl-4-ylmethyl}-amino)-3-(S)-(1H-indol-3-yl)-propionamide], for which the MIC came to 2 µg/mL (≈ 3.68 µM). For `CC(=O)NC[C@H]1CN(c2ccc(-c3ccc(CNCc4cc(C)oc4C(F)(F)F)cc3)c(F)c2)C(=O)O1` [Compound 4105, N-[3-(2-Fluoro-4′-{[(5-methyl-2-trifluoromethyl-furan-3-ylmethyl)-amino]-methyl}-biphenyl-4-yl)-2-oxo-oxazolidin-5-(S)-ylmethyl]-acetamide], the MIC was 0.5 µg/mL (≈ 0.962 µM). In the case of `CC(=O)NC[C@H]1CN(c2ccc(-c3ccc(CNNC(=O)c4ccncc4)cc3)c(F)c2)C(=O)O1` [Compound 4236, N-(3-{2-Fluoro-4′-[N′-(pyridine-4-carbonyl)-hydrazinomethyl]-biphenyl-4-yl}-2-oxo-oxazolidin-5-(S)-ylmethyl)-acetamide], the MIC is 0.25 µg/mL (≈ 0.524 µM).

`CC(=O)NC[C@H]1CN(c2ccc(-c3ccc(CSc4ncn[nH]4)cc3)c(F)c2)C(=O)O1` [Compound 2047, N-{3-[2-Fluoro-4′-(2H-[1,2,4]triazol-3-ylsulfanylmethyl)-biphenyl-4-yl]-2-oxo-oxazolidin-5-(S)-ylmethyl}-acetamide]: the MIC turned out to be 0.25 µg/mL (≈ 0.566 µM). For the compound `O=C1O[C@@H](CO)CN1c1ccc(-c2ccc(CNCc3ccncc3)cc2)c(F)c1` [Compound 4213, 3-(2-Fluoro-4′-{[(pyridin-4-ylmethyl)-amino]-methyl}-biphenyl-4-yl)-5-(R)-hydroxymethyl-oxazolidin-2-one], the MIC stood at 4 µg/mL (≈ 9.82 µM).

With `CC(=O)NC[C@H]1CN(c2ccc(-c3ccc(C(=N)NCc4ccco4)cc3)c(F)c2)C(=O)O1` [Compound 4222, N-{3-[2-Fluoro-4′-(N-furan-2-ylmethyl-carbamimidoyl)-biphenyl-4-yl]-2-oxo-oxazolidin-5-(S)-ylmethyl}-acetamide], the MIC turned out to be 16 µg/mL (≈ 35.5 µM). In the case of `CC(=O)NC[C@H]1CN(c2ccc(-c3ccc(CNCc4cocn4)nc3)c(F)c2)C(=O)O1` [Compound 4235, N-{3-[3-Fluoro-4-(6-{[(oxazol-4-ylmethyl)-amino]-methyl}-pyridin-3-yl)-phenyl]-2-oxo-oxazolidin-5-(S)-ylmethyl}-acetamide] it was 2 µg/mL (≈ 4.55 µM). The result for `CC(=O)NC[C@H]1CN(c2ccc(-c3ccc(CNCc4cc(Br)no4)cc3)c(F)c2)C(=O)O1` [Compound 4253, N-[3-(4′-{[(3-Bromo-isoxazol-5-ylmethyl)-amino]-methyl}-2-fluoro-biphenyl-4-yl)-2-oxo-oxazolidin-5-(S)-ylmethyl]-acetamide] reads 0.5 µg/mL (≈ 0.966 µM); that for `CC(=O)NC[C@H]1CN(c2ccc(-c3ccc(CNCc4c(-c5ccccc5)noc4C)cc3)c(F)c2)C(=O)O1` [Compound 4104, N-[3-(2-Fluoro-4′-{[(5-methyl-3-phenyl-isoxazol-4-ylmethyl)-amino]-methyl}-biphenyl-4-yl)-2-oxo-oxazolidin-5-(S)-ylmethyl]-acetamide], 0.25 µg/mL (≈ 0.473 µM). The result for `CC(=O)NC[C@H]1CN(c2ccc(-c3ccc(CN[C@H]4CCCNC4=O)cc3)c(F)c2)C(=O)O1` [Compound 2059, N-(3-{2-Fluoro-4′-[(2-oxo-piperidin-3-(S)-ylamino)-methyl]-biphenyl-4-yl}-2-oxo-oxazolidin-5-(S)-ylmethyl)-acetamide] reads 2 µg/mL (≈ 4.4 µM); that for `CC(=O)NC[C@H]1CN(c2ccc(-c3ccc(CNCc4cccc(C)n4)cc3)c(F)c2)C(=O)O1` [Compound 4072, N-[3-(2-Fluoro-4′-{[(6-methyl-pyridin-2-ylmethyl)-amino]-methyl}-biphenyl-4-yl)-2-oxo-oxazolidin-5-(S)-ylmethyl]-acetamide], 2 µg/mL (≈ 4.32 µM).

Consider `CC(=O)NC[C@H]1CN(c2ccc(-c3ccc(S(=O)(=O)Cc4cc[n+]([O-])cc4)cc3)c(F)c2)C(=O)O1` [Compound 3004, N-{3-[2-Fluoro-4′-(1-oxy-pyridin-4-ylmethanesulfonyl)-biphenyl-4-yl]-2-oxo-oxazolidin-5-(S)-ylmethyl}-acetamide], for which the MIC is 4 µg/mL (≈ 8.01 µM).
